Results from patent US9434670B2, “Family of aryl, heteroaryl, O-aryl and O-heteroaryl carbasugars” (TFCHEM, priority 2011, dated 2016).
Values after ≈ are worked out from the molar mass of the structure shown.

Experiments:
[1] = system: 18 hrs fasted female CD1 mice; assay: Decrease of blood glucose excursions following oral glucose challenge (oral glucose tolerance test); type: in vivo
Procedure: As experimental animal, 18 hrs fasted female CD1 mice (CDM or Charles River) were used. A test compound was dissolved in the vehicle (5% N-methyl pyrrolidone, 20% PEG 400, 75% 20 mM Na4P2O7 buffer, v/v/v) at the concentration of 1 mg/mL. After the body weights of the mice were measured and the mice randomized, the test article was orally administered at the dose of 1 mg/kg, 3 mg/kg and 10 mg/kg. For control, just the vehicle (5% N-methyl pyrrolidone, 20% PEG 400, 75% 20 mM Na4P2O7 buffer, v/v/v) was orally administered. 15 min after this oral administration, a 20% glucose solution in deionised water was orally administered to all mice. The oral administration was performed with gastric tube for mice and a 1 mL syringe. The minimum count in one group was 3 but could reach 5 for some groups. Collection of the blood was performed via the saphenous vein. Blood was collected at 5, 10, 30, 45, 60 and 120 min post glucose challenge. One experiment consisted in administrating the test article 18 hrs prior to a glucose challenge i.e. 18 hrs post po of test article. The blood glucose concentration was measured using Johnson and Johnson's OneTouch® Ultra Blood Glucose Monitoring System. The glucose concentrations for controls and test articles at the different time points were averaged using Excel 2007 and plotted using GraphPad Prism 5.

[2] = system: female CD1 mice; assay: Facilitatory effect on urinary glucose excretion after oral administration; type: in vivo; settings: 3 mg/kg po
Procedure: As experimental animal, female CD1 mice (CDM or Charles River) were used. A test compound was dissolved in the vehicle (5% N-methyl pyrrolidone, 20% PEG 400, 75% 20 mM Na4P2O7 buffer, v/v/v) at the concentration of 1 mg/mL After the body weights of the mice were measured and the mice randomized, the test article was orally administered at the dose of 1 mg/kg, 3 mg/kg and 10 mg/kg. For control, just the vehicle (5% N-methyl pyrrolidone, 20% PEG 400, 75% 20 mM Na4P2O7 buffer, v/v/v) was orally administered. The oral administration was performed with gastric tube for mice and a 1 mL syringe. The minimum count in one group was 3 but could reach 12 for some groups. Collection of the urine was performed manually by gentling massaging the abdomen in order to collect urine (3 μL) via a calibrated pipette. Urine was collected at 1, 2, 4, 6, 8 and then 16, 18, 20, 22, 24, 26 and 28 hrs. The urine glucose concentration was measured using a WAKO glucose kit as follows: 3 μL of urine was deposited into a 96-well micro plate for spectrometric readout. The urine aliquot was diluted with 350 μL of the WAKO working solution. […] The absorbance of the 96-well plates were then read at 505 nm using a BioTek SynergyMX plate fluorometer/absorbance photometer and the glucose concentration was calculated. […]

[3] = system: β-glucosidase from Almonds; assay: Enzymatic stability against glycosidase, HPLC analysis after incubation with β-glucosidase; type: in vitro ADME; settings: for degradation in the presence of β-glucosidase (in words): 4 h at 37° C., phosphate buffer pH 7, 10 U β-glucosidase
From the text: The enzymatic stability assay has been performed with compound 26 according to the invention and compound A used as a reference compound to control the efficacy of the β-glucosidase. The sergliflozin-A stability has also been evaluated in order to compare the improvement of metabolic stability obtained through the replacement of the intracyclic oxygen atom of the glucose moiety by a CF2 moiety.
All the compounds have been treated with β-glucosidase. The stability of compound 26 and Sergliflozin-A has been assessed by HPLC analysis after incubation with β-glucosidase.
A Gilson HPLC system was used, equipped with a manual injection system (V=20 μL), a Diode Array Detector (DAD172) set at a wavelength of 230 nm and a 150 mm×4.6 mm, 5 μm HICHROM Kromasil 100-5C18 reverse phase column. A linear HPLC binary gradient was used as follows: solvent A was water and solvent B was acetonitrile. Following the injection of 20 μL of a sample, solvent B was held at 20% for 3 min, increased from 20% to 90% in 17 min, held at 90% for 4 min; finally, solvent B was decreased back to 20% over 5.5 min and was held at 20% for 3.5 min.
The procedure has been adapted from J. Agric. Food Chem. 2005, 53, 4918-4924.
100 μL of a solution of compound 26 at 4.5·10^−4 mol·L^−1 in acetonitrile was added to a solution containing 800 μL of phosphate buffer (73173 Fluka, pH 7) in the presence of β-glucosidase from Almonds (10 U, 100 μL of a 5.6 mg·mL^−1 solution in phosphate buffer, (G4511sigma 18.7 U per mg)) and was kept 4 h at 37° C.
100 μL of a solution of sergliflozin-A at 4.5·10^−4 moL·L^−1 in acetonitrile has been treated in the presence of β-glucosidase following the same process.
In parallel, 100 μL of a solution of p-nitrophenyl-β-glucoside (compound A) at 4.5·10^−4 mol·L^−1 in phosphate buffer (73173 Fluka, pH 7) was added to a solution containing 700 μL of phosphate buffer and 100 μL of acetonitrile, with the presence of β-glucosidase from Almonds (10 U, 100 μL of a 5.6 mg·mL^−1 solution in phosphate buffer, (G4511 sigma 18.7 U per mg)) and was kept 4 h at 37° C. During the process in the presence of β-glucosidase, a yellow coloration was observed that underlines the decomposition of compound. A.
HPLC of compound 21 (FIG. 7), compound 26 (FIG. 8) and Sergliflozin-A (FIG. 10) have been performed to follow up in the experiments the formation of compound 21 (the aglycone part) implying a degradation of the starting material.
In order to evaluate the percentage of degradation, a calibration has been done on compound 21 giving the following results:
Data have been plotted (Area % versus concentration) and the linear regression obtained was characterized by the equation y=53629x and a R^2=0.994. […]

[4] = target: Mushroom Tyrosinase; assay: Tyrosinase inhibition, concentration series and IC50 (assay f); type: biochemical; settings: for IC50: Concentration Tyrosinase 100 U/mL, from linear regression of % activity versus concentration; for Absorbance (477 nm): 1 h 30 at 37° C.; for % activity: witness solution = 100%
Procedure: The protocol performed is the same as in assay e. Solution A (1,000 U/mL mother solution of Tyrosinase) was prepared by dissolving all of 50 kU Mushroom Tyrosinase in 1 mL 100 mM pH6.5 bis Tris buffer and QS to 50 mL with milliQ water. Bis Tris buffer (100 mM pH6.5 bis Tris buffer) was prepared by dissolving 2.09 g of Bis Tris in milliQ water and QS to 100 mL. pH was adjusted at 6.5 using hydrochloric acid. Solution B (mother solution of Tyrosine) was prepared by dissolving 20 mg of Tyrosine in milliQ water and QS to 20 mL. Stock solution of compound 31 was prepared as follow: 10 mg of compound 31 was dissolved in Bis Tris buffer up to 1 ml. Stock solution of β-arbutin was prepared as follow: 20 mg of compound β-arbutin was dissolved in Bis Tris buffer up to 1 ml. The solutions were incubated for 1 h 30 at 37° C., then quickly cooled to 4° C. 100 μL of each solution were deposited on 96-well plate. The absorbance of the different solutions were measured at 477 nm (Molecular Devices: Spectra Max 340PC). The different solutions were prepared as described in the different tables below and their absorbances were reported. The absorbance of witness solution (without inhibitor) was set at 100% of enzymatic activity, allowing us to determine the percentage of enzymatic activity of the different solutions. Data have been plotted (% of activity versus concentration of inhibitors) and the linear regression of the curve was used to calculate the […] of both compounds.

[5] = system: Mushroom Tyrosinase; assay: Inhibition of Tyrosine-Tyrosinase reaction, absorbance at 477 nm (assay e); type: biochemical; settings: test compound n = 5·10^−5 mol; Solution A 1 mL, Solution B 0.5 mL, buffer 0.5 mL; witness solution 0.4354
Procedure: Inhibition of tyrosinase, i.e. inhibition of the hydroxylation of Tyrosine into DOPA, was measured by visible spectrophotometry, and more specifically by measuring the absorbance at 477 nm, indicative of the amount of melanine produced in vitro from the Tyrosine substrate by Tyrosinase. In order to make sure that the measured absorbance is proportional to the enzymatic activity in the range of studied concentrations, five standard solutions were prepared as follows. Absorbance has been measured on a Perkin Elmer UV/Vis Spectrometer Lambda 12. Solution A (1,000 U/mL mother solution of Tyrosinase) was prepared by dissolving 40 mg of 1,250 U/mg Mushroom Tyrosinase in 1 mL 100 mM pH6.5 bis Tris buffer and QS to 50 mL with milliQ water. Bis Tris buffer (100 mM pH6.5 bis Tris buffer) was prepared by dissolving 2.09 g of Bis Tris in milliQ water and QS to 100 mL. Solution B (mother solution of Tyrosine) was prepared by dissolving 100 mg of Tyrosine in milliQ water and QS to 100 mL. The standard solutions were incubated for 2 h at 37° C., then quickly cooled to 4° C. […] The following test solutions were prepared and their absorbance was measured at 477 nm: […]

[6] = system: β-glucosidase from Almonds; settings: as referred in several publications; cited from earlier work
[7] = Inhibitor Concentration 0.17 mg/mL
[8] = Inhibitor Concentration 0.33 mg/mL
[9] = Inhibitor Concentration 0.50 mg/mL
[10] = Inhibitor Concentration 0.67 mg/mL
[11] = Inhibitor Concentration 0.83 mg/mL
[12] = Inhibitor Concentration 1.33 mg/mL
[13] = Inhibitor Concentration 2.00 mg/mL
[14] = Inhibitor Concentration 2.67 mg/mL
[15] = Inhibitor Concentration 3.33 mg/mL

## CCOc1ccc(Cc2cc([C@H]3[C@H](O)[C@@H](O)[C@H](O)[C@@H](CO)C3(F)F)ccc2Cl)cc1 [Compound 16]
[1]; 3 mg/kg po administered 18 hrs prior to glucose challenge (FIG. 4)
  blood glucose excursions following glucose challenge: still reduced blood glucose excursions
[1]; 1, 3 and 10 mg/kg po, normal mice, glucose 15 min after dosing (FIG. 3)
  blood glucose levels following glucose challenge: reduced blood glucose levels in a dose-dependent manner
[2]; compared to Dapagliflozin (FIG. 5)
  duration of glucosuria: > 24 h

## COc1ccc(Cc2ccccc2O[C@H]2[C@H](O)[C@@H](O)[C@H](O)[C@@H](CO)C2(F)F)cc1 [Compound 26]
[3]
  degradation in the presence of β-glucosidase (in words): no degradation occurs

## OC[C@@H]1[C@@H](O)[C@H](O)[C@@H](O)[C@H](Oc2ccc(O)cc2)C1(F)F [Compound 31]
[4]
  IC50: 328 µg/mL (≈ 1070 µM)
[4]; [7]
  Absorbance (477 nm): 0.5855
  % activity: 81.55%
[4]; [8]
  Absorbance (477 nm): 0.3535
  % activity: 49.23%
[4]; [9]
  Absorbance (477 nm): 0.255
  % activity: 35.52%
[4]; [10]
  Absorbance (477 nm): 0.220
  % activity: 30.57%
[4]; [11]
  Absorbance (477 nm): 0.200
  % activity: 27.86%
[5]
  Absorbance (477 nm): 0.1292

## Oc1ccc(O)cc1 [Hydroquinone]
[5]
  Absorbance (477 nm): 0.1528

## COc1ccc(Cc2ccccc2O[C@@H]2O[C@H](CO)[C@@H](O)[C@H](O)[C@H]2O)cc1 [Sergliflozin-A]
[6]
  cleavage by β-glucosidase: undergo cleavage
[3]
  degradation in the presence of β-glucosidase (in words): degradation occurs
[3]; 4 h of incubation at 37° C. with β-glucosidase, pH 7, from HPLC area of aglycone 21
  degradation: 80%

## CCOc1ccc(Cc2cc([C@H]3[C@H](O)[C@@H](O)[C@H](O)[C@@H](CO)[C@@H]3O)ccc2Cl)cc1 [compound 9 of WO 2009/1076550]
[2]; 16 to 28 hours after administration (FIG. 6)
  glucosuria detected in the same time period (up to 24 hrs): none could be detected

## O=[N+]([O-])c1ccc(O[C@@H]2O[C@H](CO)[C@@H](O)[C@H](O)[C@H]2O)cc1 [compound A, p-nitrophenyl-β-glucoside]
[3]
  degradation in the presence of β-glucosidase (in words): decomposition

## OC[C@H]1O[C@@H](Oc2ccc(O)cc2)[C@H](O)[C@@H](O)[C@@H]1O [β-Arbutin]
[4]
  IC50: 1100 µg/mL (≈ 4040 µM)
[4]; [10]
  Absorbance (477 nm): 0.5010
  % activity: 66.62%
[4]; [12]
  Absorbance (477 nm): 0.3040
  % activity: 40.43%
[4]; [13]
  Absorbance (477 nm): 0.2380
  % activity: 31.65%
[4]; [14]
  Absorbance (477 nm): 0.2035
  % activity: 27.06%
[4]; [15]
  Absorbance (477 nm): 0.1970
  % activity: 26.20%
